Assay results as given in publication PMC3661926 (Acta Neuropathologica, 2013).
Where two headings read alike, the source gives them in different places.

Experiments:
[1] = C57/BL6, mouse, in vivo
[2] = system: rotenone-treated C57Bl/6J mice; conditions: mouse, in vivo
[3] = system: RML scrapie; type: in vivo, C57BL/6 mice; conditions: for Median/Mean* Survival Therapy / difference of survival therapy vs control: C57BL/6, RML i.c., 250 mg/kg
[4] = biological target: PrP^Sc (vCJD prions) (Homo sapiens, UniProt P04156); assay: biochemical
[5] = system: actin; type: biochemical
[6] = system: cultured human peripheral lymphocytes
[7] = in vivo
[8] = system: RML scrapie; assay: whole plant or invertebrate; type: in vivo, C57BL/6 mice
[9] = mouse, in vivo, 2000 mg/kg
[10] = biological target: PrP^Sc (RML prion strain) (Mus musculus, UniProt P04925); assay: biochemical
[11] = system: MPTP-treated mice; conditions: mouse, in vivo
[12] = physchem; conditions: water
[13] = rat, in vivo, 2000 mg/kg
[14] = system: Salmonella typhimurium strains TA 98, TA 100, TA 102, TA 1535 and TA 1537
[15] = system: prion strains RML, ME7, 301C, sCJD, vCJD; type: biochemical, mouse and human; conditions: 1 μl of 10 mM compound solution in DMSO
[16] = in vivo; conditions: C57/BL6, mouse; for half-life: ip, 1 mg

PrP^Sc (RML prion strain), sequence (P04925 23-230 limits assumed): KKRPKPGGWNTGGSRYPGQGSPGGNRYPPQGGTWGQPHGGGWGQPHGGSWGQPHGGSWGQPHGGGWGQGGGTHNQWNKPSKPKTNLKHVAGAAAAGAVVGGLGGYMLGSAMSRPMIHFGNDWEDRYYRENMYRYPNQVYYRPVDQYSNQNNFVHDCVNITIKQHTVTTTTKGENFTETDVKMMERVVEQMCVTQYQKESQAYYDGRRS

## Brc1cccc(-c2cc(-c3ccc4c(c3)OCO4)n[nH]2)c1 [anle138b, 3-(1,3-benzodioxol-5-yl)-5-(3-bromophenyl)-1H-pyrazole]
[1]
  AUC after oral application compared to i.p. application: approximately 50%
[2]
  1-h stool collection gut motility test: complete rescue of enteric function
  motor performance (Rotarod): significantly improved motor performance
[3]; 160 d.p.i., arena movement tracking
  motor performance in prion infected mice: unimpaired
[3]; 0 dpi oral
  Median/Mean* Survival Therapy: 355 days
  difference of survival therapy vs control: 175 days
[3]; 80 dpi oral
  Median/Mean* Survival Therapy: 242 days
  difference of survival therapy vs control: 74 days
[3]; 120 dpi oral
  Median/Mean* Survival Therapy: 224 days
  difference of survival therapy vs control: 52 days
[3]; brain homogenates of treated mice, fractions 7–12
  size distribution of PrP^Sc aggregates (sucrose-gradient centrifugation): strong reduction of high molecular weight species
[3]; mouse, in vivo
  pyknotic nuclei, cerebellar granule cell layer: significantly reduced number of pyknotic nuclei
[3]; treatment from 80 dpi onwards
  time for which weight loss is prevented: ~ 100 days
[3]; treatment from 120 dpi
  time for which further weight loss is inhibited: ~ 70 days
[3]; treatment from day 80 post i.c. infection (5 mg daily oral)
  Median survival: 242,5
[3]; treatment from day 120 post i.c. infection (5 mg daily oral)
  Median survival: 224,0
[4]
  EC50: 7.1 µM
[5]
  effect on actin polymerization: do not affect actin polymerization
[6]
  clastogenic activity, conclusion: no indications of mutagenic properties
[7]; C57/BL6, mouse
  metabolites in brain extracts (HPLC, high resolution MS): did not identify metabolites of anle138b
[7]; mouse, po
  conc. brain: 34.1 nmol/g
[8]; PrP^Sc level in brain 106 days after i.c. infection, treatment 24 days: 14 days i.p. 0.84 mg, 2 × 5 days oral gavage 1 mg
  % inhibition PrP^Sc in vivo (c): 108%
[8]; PrP^Sc level in spleen 35 days after i.p. infection, 34 days treatment with 1 mg compound oral in peanut butter
  % inhibition PrP^Sc in vivo (b): 57%
[8]; from 80 dpi: 14 days i.p. 0.84 mg, 2 x 5 days gavage 1 mg, measured at 95 and 106 dpi
  change of PrPSc levels in brain, mixed application scheme: decrease in PrPSc levels
[8]; in Mus musculus, po, 2880 h, read-out: % inhibition PrP^Sc in vivo (a)
  inhibition in vivo at 1 mg: 78%
[9]
  acute toxicity, single oral administration: did not reveal any signs of toxicity and no mortality
[10]
  EC50: 7.3 µM
[10]; read-out: % inhibition PrP^Sc PMCA
  inhibition at 10 µM: 84%
[11]
  loss of dopaminergic (TH-positive) neurons in substantia nigra: significantly ameliorated
[12]
  solubility: < 1 µM
[13]
  acute toxicity, single oral administration: not reveal any signs of toxicity and no mortality
[14]
  concentration with test item precipitation: ≥ 100 µg/plate
  cytotoxicity, preliminary test: No signs of cytotoxicity
  mutagenic effect (revertant colony numbers): No mutagenic effect
[15]
  inhibitory activity in PMCA, all prion strains tested: strong inhibitory activity in all prion strains tested
[16]
  Kp: ~3
[16]; half-life t½ in brain
  half-life: 2.9 h
[16]; half-life t½ in serum
  half-life: 2.4 h
